Broadly, the solubility is the dissolved amount per volume that the medium holds.

The values that follow come from article PMC10704561, “Multi-Photon-Sensitive Chromophore for the Photorelease of Biologically Active Phenols” (ACS Chemical Neuroscience, 2023).

Each structure is given as a SMILES string. Read-outs that look alike come from different tables or passages of the source.

Series [1] is described as follows: UV-vis spectra and molar extinction coefficient in KMOPS buffer. The format is physicochemical. Particulars: 0.1 mM in KMOPS buffer, pH 7.2 (3d, 6c: 10 or 20% CH3CN added). How it is done:
A 100 μM solution of each protected phenol was prepared in KMOPS buffer (20% CH3CN was used as a cosolvent for compounds 3d and 6c). The UV–vis spectra of these solutions were recorded at between 250 and 500 nm. All of the measurements were repeated in triplicate, and the absorbance values were averaged. The Beer–Lambert law, ε = A(cl)^−1, was used for the calculation of ε values at λ = 365 nm, where A is the absorbance value measured at 365 nm, c is the concentration of the sample, and l is the cuvette length (1 cm). See the Supporting Information for the spectra.

Series [2] is described as follows: Solubility in KMOPS buffer pH 7.2. The format is physicochemical. Particulars: aqueous buffer; KMOPS buffer, pH 7.2; read-out: solubility. The source says: The photochemical and photophysical properties were investigated in a simulated physiological buffer (KMOPS, pH 7.2) and compared with the literature data for CyHQ-O-DA (Table 1). […] For this derivative, 10% CH3CN in the buffer was used to ensure complete solubilization for the photochemistry experiments. The spontaneous hydrolysis in the dark was monitored over a period of 7 days and no significant hydrolysis was detected for any of the constructs. The molar absorptivity at the wavelength used for 1PE photolysis (ε365) ranged between 4800 and 5670 M^–1 cm^–1, in line with the values of most CyHQ-based PPGs.
The photochemical behavior of constructs 4–7c was investigated in KMOPS buffer at the concentration of 0.1 mM. Under these conditions, all compounds were soluble except for the VNA analogue 6c, which, because of the lipophilicity of the vanilloid, required 20% CH3CN for full solubilization. The stability toward hydrolysis in the dark was monitored over a week, and no significant decomposition was detected for any probe. All constructs were successfully photolyzed after light exposure, as shown in the time courses of the photolysis reactions (Figure 3). MeO-CyHQ constructs 4c, 6c, and 7c were photoactivated with excellent quantum efficiency and sensitivities, and good chemical yields were obtained by monitoring the appearance of the released bioeffector over the time course of the photoreaction (Table 1). […] We believe this effect is due to the presence of the thiophene ring, a well-known photoactive group,[51] which could act as an energy sink in the excited state and quench the photochemical reaction.

Series [3] can be described thus: Spontaneous hydrolysis in the dark. The format is physicochemical. Particulars: 0.1 mM in KMOPS pH 7.2, dark, 7 days. As to the method: A 0.1 mM solution of each compound was prepared in KMOPS buffer. For compounds 3d and 6c, 20% CH3CN was used as a cosolvent. The solutions were kept in the dark for 7 days, and the percentage of the starting materials was determined by periodic HPLC analysis (Supporting Information, HPLC Data).

Series [4] is described as follows: One-photon excitation (1PE) photolysis with 365 nm LED, HPLC quantification. The format is physicochemical. Particulars: for t90% (time required to consume 90% of the starting material): 1PE 365 nm LED, lamp intensity differs per compound (Table S1). How it is done:
A 0.1 mM solution (3 mL) of each protected phenol in KMOPS buffer (10 or 20% CH3CN was used as a cosolvent for 3d and 6c) was placed in a 3 mL quartz cuvette along with a stirring bar. The solution was irradiated with stirring using a 365 nm LED lamp (Cairn OptoLED Lite). At different time intervals, 80 μL aliquots of the solution were taken out and analyzed by uHPLC (Agilent 1290 Infinity series), monitoring the AUC at 320 nm (Supporting Information, HPLC Data). An external standard calibration method of quantification was used for the calibration of the samples. The experiments were repeated in sets of three. A gradient elution with a flux rate of 0.3 mL/min using a mobile phase comprising A = 0.1% trifluoroacetic acid in water and B = acetonitrile (starting from 5% B to 100% over 10 min and re-equilibrating to 5% B before the next run) was used for the separations. A comparison of the AUC with the calibration curves of the substrates (obtained from known concentration) determined the percentages of the remaining starting materials. The percentages of the remaining starting materials were plotted versus time. The time to 90% of decomposition of the substrate (t90% values) was obtained by fitting a single exponential decay curve to the data using DeltaGraph (Red Rock Software). The following equation was used to calculate the quantum yield (Φu) of each photolysis reaction:[42],[47],[56],[57] Φu = (I σ t90%)^−1, where I is the irradiation intensity (determined by potassium ferrioxalate actinometry and measured in Einstein cm^–2 s^–1),[58] σ is the decadic extinction coefficient (1000 × ε) at 365 nm, and t90% is the time required to consume 90% of the starting material. See Supporting Information Table S1 for the I, σ, and t90% data.

In a further series the test system is dLight 1.2. Briefly: Activation of dLight 1.2 on HCT 116 cells by photoreleased dopamine. The format is cell-based. To be noted: for dLight 1.2 response after photoactivation (1PE): 10 μM. As to the method: (§1) HCT 116 cells were grown in Dulbecco’s […] medium (DMEM) supplemented with 10% fetal bovine serum (FBS), 1% nonessential amino acids (NEAA), and maintained at 37 °C and 5% CO2. HEK 293 cells stably expressing TRPV1 channels were grown as previously described.[62]
(§2) An Olympus FluoView FV1000MPE confocal microscope was employed to image and record cells plated onto 35 mm glass-bottom 4-well plates. A 488 nm ion laser excited the dopamine and serotonin sensors dLight 1.2 and GRAB5-HT, respectively, and Fluo-4 calcium dye. FluoView 10-ASW version 4.0 (Olympus), ImageJ-Fiji, and DeltaGraph (Red Rock Software) were used for capturing, extracting, and processing the collected data. Photoactivation was conducted with 405 nm (100% laser power, 1PE) or 720 nm (10% laser power, 24 mW, 2PE) light for MeO-CyHQ-O-DA and MeO-CyHQ-O-5HT or 740 nm (20% laser power, 15 mW light) for MeO-CyHQ-O-VNA and MeO-CyHQ-O-EG. Images were captured by using a 60× immersion lens.
(§3) HCT 116 cells were grown to 70% confluency on specialized glass-bottom plates for imaging. After 24 h, the cells were transfected (70% efficiency) with either dLight 1.2 or GRAB5-HT. Before imaging, the DMEM was discarded and the cells were washed twice with HBSS. HBSS (500 μL) was added per well for imaging. DMSO was used to dissolve the compounds CyHQ-O-DA, MeO-CyHQ-O-DA, and MeO-CyHQ-O-5HT to make 1 mM stock solutions. These were then added to the wells to obtain the desired final concentrations, keeping the DMSO concentration to less than 1%, which is tolerated by the cells. Control experiments included optimization of the response of the dLight 1.2 and GRAB5-HT sensors to the release of dopamine and serotonin, respectively, through exposure to different concentrations of CyHQ-O-DA, MeO-CyHQ-O-DA, and MeO-CyHQ-O-5HT at different durations of 405 nm light. Optimizations were conducted in a similar manner for activation through 2PE. Light dose–response curves were generated by applying a 405 nm light pulse for 1, 10, 50, 100, 200, 300, 400, 500, 600, 750, and 1000 ms at 50 frame intervals for CyHQ-O-DA, MeO-CyHQ-O-DA, and MeO-CyHQ-O-5HT.

A further series has as its system GRAB5-HT. The series is described as follows: Activation of GRAB5-HT on HCT 116 cells by photoreleased serotonin. The format is cell-based. As to the method:
as §1, §2
as §3, with “Light dose–response curves were generated by applying a 405 nm light pulse for 1, 10, 50, 100, 200, 300, 400, 500, 600, 750, and 1000 ms at 50 frame intervals for CyHQ-O-DA, MeO-CyHQ-O-DA, and MeO-CyHQ-O-5HT.” left out

Details of series [5]: method as in PMID 32077679. To be noted: KMOPS buffer, pH 7.2; cited from earlier work.
On the set-up of series [6]: method as in PMID 32077679. Particulars: cited from earlier work.
On the set-up of series [7]: method as in PMID 32077679. To be noted: KMOPS buffer, pH 7.2; cited from earlier work. The source holds these as a separate data set.

In [1], `COc1cc(COc2ccc(CCN)cc2O)nc2c(C#N)c(O)ccc12.O=C(O)C(F)(F)F` [3c, 2-(4-((8-Cyano-7-hydroxy-4-methoxyquinolin-2-yl)methoxy)-3-hydroxyphenyl)ethan-1-aminium 2,2,2-trifluoroacetate] came in with a ε365 of 5670 M^–1 cm^–1 and a λmax of 354 nm. The solubility in [2] is more than 100 µM. Besides, the “τd (time constant of spontaneous hydrolysis in buffer in the dark at room temperature)” value in series [3] is listed as “nh (No hydrolysis (<5% detected after 7 days))”. In series [4], the “t90% (time required to consume 90% of the starting material)” value stood at 25.4 s. The “irradiation time to complete the 1PE photolysis reaction” value in [4] (365 nm) is listed as “less than 1 min”. The “dLight 1.2 response after photoactivation (1PE)” value in the series with dLight 1.2 (10 ms flash of 405 nm light) is “robust response”. In the series on dLight 1.2 (100 μM, 200 ms flash of 720 nm light), the “dLight 1.2 response after photoactivation (2PE)” value is on record as “activated dLight 1.2”.
Turning to `COc1cc(COc2ccc3[nH]cc(CCN)c3c2)nc2c(C#N)c(O)ccc12.O=C(O)C(F)(F)F` [4c, 2-(5-((8-Cyano-7-hydroxy-4-methoxyquinolin-2-yl)methoxy)-1H-indol-3-yl)ethan-1-aminium 2,2,2-trifluoroacetate], in series [1], the ε365 was determined as 5400 M^–1 cm^–1 and the λmax is recorded as 355 nm. Further, in series [2], the solubility was more than 100 µM. In addition, the “GRAB5-HT response after photoactivation (1PE)” value with GRAB5-HT (20 μM, 20 ms burst of 405 nm light) is recorded as “robust response”. Also, in the series with GRAB5-HT (200 μM, 200 ms pulse of 720 nm light), the “GRAB5-HT response after photoactivation (2PE)” value is given as “robust response”. The “light pulse duration at which the GRAB5-HT response plateaus” value with GRAB5-HT (405 nm (1PE), 20 μM) is on record as “around 200 ms”. Also, in [3], the “τd (time constant of spontaneous hydrolysis in buffer in the dark at room temperature)” value is “nh (No hydrolysis (<5% detected after 7 days))”. The “t90% (time required to consume 90% of the starting material)” value in series [4] was 18.4 s.
Regarding `N#Cc1c(O)ccc2ccc(COc3cc(CCN)ccc3O)nc12` [CyHQ-O-DA], the solubility in series [5] was more than 100 µM. In series [6], the “τd (time constant of spontaneous hydrolysis in buffer in the dark at room temperature)” value was “nh ^g (No hydrolysis (<5% detected after 7 days))”. In [7], the ε365 is on record as 5300 M^–1 cm^–1 and the λmax is listed as 365 nm. For the same compound, the “dLight 1.2 response after photoactivation (1PE)” value with dLight 1.2 (405 nm light pulse) is given as “increase in fluorescence output”.
Take `NCCc1ccc(O)c(O)c1` [dopamine, reference compound]: in the series with dLight 1.2 (100 μM, no photoactivation), the “dLight 1.2 response to bulk addition” value was “increase in fluorescence output”.
